Results reported in ChEMBL document CHEMBL4627340, “Design, synthesis, and biological activity of new endomorphin analogs with multi-site modifications” (Bioorg Med Chem, 2020).
Active and inactive are the calls of the source. The calls are words filed in the database; no cut-off is given here.

Assays:
[1] = test system: Mus musculus; experiment: Antinociceptive activity in kunming mouse models of acetic-acid-induced writhing assessed as inhibition of writhing numbers at 3 mg/kg, iv pretreated for 5 mins followed by acetic-acid treatment and measured for 20 mins; format: functional, organism-based
[2] = target: Mu-type opioid receptor (Rattus norvegicus, UniProt P33535); experiment: Displacement of [3H]-DAMGO from Wistar rat mu opioid receptor incubated for 1 hr by liquid scintillation counting method
[3] = test system: Mus musculus; experiment: Antinociceptive activity in kunming mouse models of acetic-acid-induced writhing assessed as inhibition of writhing numbers at 0.04 nmol, icv pretreated for 5 mins followed by acetic-acid treatment and measured for 20 mins relative to control; format: functional; set-up: scale not given: the % may be the effect or the level left
[4] = test system: Mus musculus; experiment: Antinociceptive activity in kunming mouse models assessed as maximum possible effect at 0.4 nmol, icv measured from 5 to 60 mins by warm water tail-flick assay relative to control; format: functional
[5] = test system: Mus musculus; experiment: Antinociceptive activity in kunming mouse models assessed as effective dose after icv administration measured from 5 to 60 mins by warm water tail-flick assay; format: functional
[6] = test system: Mus musculus; experiment: Antinociceptive activity in kunming mouse models of formalin-induced hyperalgesia assessed as reduction in time spent on paw biting inflammatory phase at 4 nmol, icv measured during phase 2 at 15 to 30 mins relative to control; format: functional; set-up: scale not given: the % may be the effect or the level left
[7] = test system: Mus musculus; experiment: Antinociceptive activity in kunming mouse models of formalin-induced hyperalgesia assessed as reduction in pain response of paw licking inflammatory phase at 4 nmol, icv measured during phase 1 at 0 to 5 mins relative to control; format: functional; set-up: scale not given: the % may be the effect or the level left
[8] = test system: Mus musculus; experiment: Antinociceptive activity in kunming mouse models of formalin-induced hyperalgesia assessed as reduction in time spent on paw shaking inflammatory phase at 0.04 nmol, icv measured during phase 1 at 0 to 5 mins relative to control; format: functional; set-up: scale not given: the % may be the effect or the level left
[9] = test system: Mus musculus; experiment: Antinociceptive activity in kunming mouse models of formalin-induced hyperalgesia assessed as reduction in time spent on paw shaking inflammatory phase at 4 nmol, icv measured during phase 1 at 0 to 5 mins relative to control; format: functional; set-up: scale not given: the % may be the effect or the level left
[10] = test system: Mus musculus; experiment: Antinociceptive activity in icv administered kunming mouse models of formalin-induced hyperalgesia assessed reduction in pain response of paw licking during inflammatory phase 2 at 15 to 30 mins; format: functional, organism-based
[11] = test system: Mus musculus; experiment: Antinociceptive activity in kunming mouse models of formalin-induced hyperalgesia assessed as reduction in pain response of paw licking inflammatory phase at 0.04 nmol, icv measured during phase 1 at 0 to 5 mins relative to control; format: functional; set-up: scale not given: the % may be the effect or the level left
[12] = test system: Mus musculus; experiment: Antinociceptive activity in kunming mouse models assessed as maximum possible effect at 3 mg/kg, iv measured after 5 to 60 mins by warm water tail-flick assay; format: functional
[13] = target: T1, Mu-type opioid receptor (Homo sapiens, UniProt P35372); experiment: Agonist activity at mu opioid receptor (unknown origin) expressed in human HEK293 cells assessed as […] in cAMP accumulation using [3H]-cAMP as substrate measured after 30mins by liquid scintillation counting method relative to control; format: functional, cell-based
[14] = test system: Mus musculus; experiment: Antinociceptive activity in iv dosed kunming mouse models of formalin-induced hyperalgesia assessed as reduction in pain response of paw licking measured up to 60 mins; format: functional, organism-based
[15] = Half life in Kunming mouse serum at 10^-2 mol/L by RP-HPLC analysis; format: ADME, cell-free
[16] = test system: Mus musculus; experiment: Antinociceptive activity in kunming mouse models of formalin-induced hyperalgesia assessed as reduction in time spent on paw shaking inflammatory phase at 4 nmol, icv measured during phase 2 at 15 to 30 mins relative to control; format: functional; set-up: scale not given: the % may be the effect or the level left
[17] = test system: Mus musculus; experiment: Antinociceptive activity in kunming mouse models assessed as effective dose after iv administration by warm water tail-flick assay; format: functional
[18] = test system: Mus musculus; experiment: Antinociceptive activity in icv administered kunming mouse models of formalin-induced hyperalgesia assessed reduction in time spent on paw biting during inflammatory phase 2 at 15 to 30 mins; format: functional; set-up: scale not given: the % may be the effect or the level left
[19] = Half life in Kunming mouse brain homogenate at 10^-2 mol/L by RP-HPLC analysis; format: ADME, tissue-based
[20] = Neurotoxicity in kunming mouse models assessed as effect in locomotor activity at 10 mg/kg,iv measured up to 60 mins by rotarod test; format: toxicity, organism-based; conditions: in vivo, 1 h
[21] = target: Delta-type opioid receptor (Rattus norvegicus, UniProt P33533); experiment: Displacement of [3H]-DPDPE from Wistar rat delta opioid receptor incubated for 3 hrs by liquid scintillation counting method
[22] = test system: Mus musculus; experiment: Antinociceptive activity in kunming mouse models assessed as maximum possible effect at 10 mg/kg, iv measured after 5 to 60 mins co-treated with naloxone by warm water tail-flick assay; format: functional, organism-based
[23] = test system: Mus musculus; experiment: Antinociceptive activity in kunming mouse models of formalin-induced hyperalgesia assessed as reduction in time spent on paw biting inflammatory phase at 4 nmol, icv measured during phase 1 at 0 to 5 mins relative to control; format: functional; set-up: scale not given: the % may be the effect or the level left
[24] = test system: Mus musculus; experiment: Antinociceptive activity in kunming mouse models assessed as maximum possible effect at 4 nmol, icv measured from 5 to 60 mins by warm water tail-flick assay relative to control; format: functional
[25] = test system: Mus musculus; experiment: Antinociceptive activity in icv administered kunming mouse models of formalin-induced hyperalgesia assessed reduction in time spent on paw shaking during inflammatory phase 2 at 15 to 30 mins; format: functional; set-up: scale not given: the % may be the effect or the level left
[26] = test system: Mus musculus; experiment: Antinociceptive activity in kunming mouse models of formalin-induced hyperalgesia assessed as reduction in time spent on paw biting inflammatory phase at 0.04 nmol, icv measured during phase 1 at 0 to 5 mins relative to control; format: functional; set-up: scale not given: the % may be the effect or the level left
[27] = Toxicity in kunming mouse assessed as reduction in fecal dry weight at 1 to 10 mg/kg, iv after 1 hr; format: organism-based; conditions: in vivo
[28] = test system: Mus musculus; experiment: Antinociceptive activity in kunming mouse models of formalin-induced hyperalgesia assessed as reduction in pain response of paw licking inflammatory phase at 4 nmol, icv measured during phase 2 at 15 to 30 mins relative to control; format: functional; set-up: scale not given: the % may be the effect or the level left
[29] = Toxicity in kunming mouse assessed as reduction in number of fecal pellet at 1 to 10 mg/kg, iv after 1 hr; format: organism-based; conditions: in vivo
[30] = target: T1, Mu-type opioid receptor; experiment: Agonist activity at mu opioid receptor (unknown origin) expressed in human HEK293 cells assessed as […] in cAMP accumulation using [3H]-cAMP as substrate measured after 30mins by liquid scintillation counting method; format: functional, cell-based

T1 sequence (P35372 whole entry): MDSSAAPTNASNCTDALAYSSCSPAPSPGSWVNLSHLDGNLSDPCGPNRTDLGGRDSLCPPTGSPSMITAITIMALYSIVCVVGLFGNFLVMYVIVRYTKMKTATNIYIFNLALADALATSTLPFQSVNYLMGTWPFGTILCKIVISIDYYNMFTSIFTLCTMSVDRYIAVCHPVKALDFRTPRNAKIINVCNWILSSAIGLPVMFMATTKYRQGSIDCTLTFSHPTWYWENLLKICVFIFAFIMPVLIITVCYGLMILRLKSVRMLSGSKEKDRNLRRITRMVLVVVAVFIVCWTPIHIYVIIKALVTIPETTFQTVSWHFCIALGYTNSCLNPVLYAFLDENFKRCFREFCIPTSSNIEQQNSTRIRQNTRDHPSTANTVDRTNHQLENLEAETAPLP
Chain of Delta-type opioid receptor (P33533 whole entry): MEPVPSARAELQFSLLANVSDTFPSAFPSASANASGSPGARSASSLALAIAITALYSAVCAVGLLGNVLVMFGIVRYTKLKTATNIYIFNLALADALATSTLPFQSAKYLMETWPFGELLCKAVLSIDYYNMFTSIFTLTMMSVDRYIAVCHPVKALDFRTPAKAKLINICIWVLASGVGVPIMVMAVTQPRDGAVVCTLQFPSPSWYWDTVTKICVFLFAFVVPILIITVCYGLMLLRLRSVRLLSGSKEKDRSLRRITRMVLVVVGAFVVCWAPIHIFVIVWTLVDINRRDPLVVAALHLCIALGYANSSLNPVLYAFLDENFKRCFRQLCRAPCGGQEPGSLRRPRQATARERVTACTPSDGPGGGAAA
Chain of Mu-type opioid receptor (Rattus norvegicus, UniProt P33535) (P33535 whole entry): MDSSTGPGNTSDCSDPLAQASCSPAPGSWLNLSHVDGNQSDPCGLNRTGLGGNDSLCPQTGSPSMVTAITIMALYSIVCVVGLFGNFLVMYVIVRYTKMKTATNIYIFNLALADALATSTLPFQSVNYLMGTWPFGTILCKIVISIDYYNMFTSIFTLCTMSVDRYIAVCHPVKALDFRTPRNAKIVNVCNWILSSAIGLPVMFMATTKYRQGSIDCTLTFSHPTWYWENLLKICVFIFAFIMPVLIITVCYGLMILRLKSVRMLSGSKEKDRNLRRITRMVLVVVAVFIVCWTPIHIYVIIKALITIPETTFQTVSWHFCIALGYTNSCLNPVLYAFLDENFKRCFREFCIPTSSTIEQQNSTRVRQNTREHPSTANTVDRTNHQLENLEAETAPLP

| Structure (SMILES) | Activity [1] | Ki [2] | Activity [3] | MPE [4] | ED50 [5] | Activity [6] | Activity [7] | Activity [8] | Activity [9] | Activity [10] | Activity [11] | MPE [12] | Emax [13] | Activity [14] | half-life [15] | Activity [16] | ED50 [17] | Activity [18] | half-life [19] | Activity [20] | other results |
| --- | --- | --- | --- | --- | --- | --- | --- | --- | --- | --- | --- | --- | --- | --- | --- | --- | --- | --- | --- | --- | --- |
| C=C(C(N)=O)[C@@H](NC(=O)[C@H](Cc1c[nH]c2ccccc12)NC(=O)[C@@H](CCCNC(N)=O)NC(=O)[C@@H](N)Cc1ccc(O)cc1)c1ccco1 | Active | 5.82 nM | 100% | 100% | 0.037 nmol | 100% | 100% | 100% | 100% | Dose-dependent effect | 100% | 51.2% | 78.9% | Dose-dependent effect | > 5 h | 100% | 2.59 nmol | 100% | > 5 h | Non-Toxic | Ki [21]: > 10000 nM; Activity [22]: inactive; Activity [23]: 100%; Activity [24]: 100%; Activity [25]: 100%; Activity [26]: 100%; Activity [27]: Toxic; Activity [28]: 100%; Activity [29]: Toxic; EC50 [30]: 164 nM |
| C=C(C(N)=O)[C@@H](NC(=O)[C@H](Cc1ccccc1)NC(=O)[C@@H](CCCNC(N)=O)NC(=O)[C@@H](N)Cc1ccc(O)cc1)c1ccco1 | Active | 8.72 nM | 100% | 84% | 0.043 nmol | 100% | 100% | 100% | 100% | Dose-dependent effect | 100% | 34.8% | 76.7% | Dose-dependent effect | > 5 h | 100% | 3.84 nmol | 100% | > 5 h | Non-Toxic | Ki [21]: > 10000 nM; Activity [22]: inactive; Activity [23]: 100%; Activity [24]: 100%; Activity [25]: 100%; Activity [26]: 100%; Activity [27]: Toxic; Activity [28]: 100%; Activity [29]: Toxic; EC50 [30]: 128 nM |
